Data reported in patent publication US8765944B2, “Compounds for the treatment of hepatitis C” (priority 2010, dated 2014).

These compounds were tested on HCV pseudoparticles (assay: HCV pseudoparticle infection assay (luciferase reporter, Huh7 cells)). Conditions: Hepatitis C virus, genotype 1b, Huh-7, 48 h, HCV pseudoparticles (genotype 1b), luciferase activity 2 days after infection.
Type: cell-based, HCV (genotype 1b E1 and E2 envelope)

| SMILES | EC50 [nM] |
| --- | --- |
| C=CS(=O)(=O)NC(=O)c1ccc(Nc2nc(NC3(c4ccc(Cl)cc4)CC3)nc(OCC(F)(F)F)n2)cc1 [Example 1004] | 5.3 |
| CN(C)S(=O)(=O)NC(=O)c1ccc(Nc2nc(NC3(c4ccc(Cl)cc4)CC3)nc(OCC(F)(F)F)n2)cc1 [Example 1006] | 39 |
| CCC1(S(=O)(=O)NC(=O)c2ccc(Nc3nc(NC4(c5ccc(Cl)cc5)CC4)nc(OCC(F)(F)F)n3)cc2)CC1 [Example 1008] | 81 |
| O=C(NS(=O)(=O)C1(CN2CCCC2)CC1)c1ccc(Nc2nc(NC3(c4ccc(Cl)cc4)CC3)nc(OCC(F)(F)F)n2)cc1 [Example 1011] | 0.48 |
| CN(C)CC1(S(=O)(=O)NC(=O)c2ccc(Nc3nc(NC4(c5ccc(Cl)cc5)CC4)nc(OCC(F)(F)F)n3)cc2)CC1 [Example 1012] | 0.25 |
| CN(CC1(S(=O)(=O)NC(=O)c2ccc(Nc3nc(NC4(c5ccc(Cl)cc5)CC4)nc(OCC(F)(F)F)n3)cc2)CC1)c1ccccc1 [Example 1021] | 94 |
| CNC(=O)OCC1(S(=O)(=O)NC(=O)c2ccc(Nc3nc(NC4(c5ccc(Cl)cc5)CC4)nc(OCC(F)(F)F)n3)cc2)CC1 [Example 1026] | 103 |
| O=C(Nc1cccnc1)OCC1(S(=O)(=O)NC(=O)c2ccc(Nc3nc(NC4(c5ccc(Cl)cc5)CC4)nc(OCC(F)(F)F)n3)cc2)CC1 [Example 1028] | 60 |

Same assay, conditions: Hepatitis C virus, genotype 1b, Huh-7, 48 h, HCV pseudoparticles (genotype 1b), luciferase activity 2 days after infection, class

| SMILES | EC50 [nM] |
| --- | --- |
| O=C(NS(=O)(=O)C1CC1)c1ccc(Nc2nc(NC3(c4ccc(Cl)cc4)CC3)nc(OCC(F)(F)F)n2)cc1 [Example 1001] | 0.5 to 100 |
| CS(=O)(=O)NC(=O)c1ccc(Nc2nc(NC3(c4ccc(Cl)cc4)CC3)nc(OCC(F)(F)F)n2)cc1 [Example 1002] | 0.5 to 100 |
| CCS(=O)(=O)NC(=O)c1ccc(Nc2nc(NC3(c4ccc(Cl)cc4)CC3)nc(OCC(F)(F)F)n2)cc1 [Example 1003] | 0.5 to 100 |
| C=CS(=O)(=O)NC(=O)c1ccc(Nc2nc(NC3(c4ccc(Cl)cc4)CC3)nc(OCC(F)(F)F)n2)cc1 [Example 1004] | 0.5 to 100 |
| CC(C)S(=O)(=O)NC(=O)c1ccc(Nc2nc(NC3(c4ccc(Cl)cc4)CC3)nc(OCC(F)(F)F)n2)cc1 [Example 1005] | 0.5 to 100 |
| CN(C)S(=O)(=O)NC(=O)c1ccc(Nc2nc(NC3(c4ccc(Cl)cc4)CC3)nc(OCC(F)(F)F)n2)cc1 [Example 1006] | 0.5 to 100 |
| CCCC1(S(=O)(=O)NC(=O)c2ccc(Nc3nc(NC4(c5ccc(Cl)cc5)CC4)nc(OCC(F)(F)F)n3)cc2)CC1 [Example 1007] | 0.5 to 100 |
| CCC1(S(=O)(=O)NC(=O)c2ccc(Nc3nc(NC4(c5ccc(Cl)cc5)CC4)nc(OCC(F)(F)F)n3)cc2)CC1 [Example 1008] | 0.5 to 100 |
| O=C(NS(=O)(=O)CCCCl)c1ccc(Nc2nc(NC3(c4ccc(Cl)cc4)CC3)nc(OCC(F)(F)F)n2)cc1 [Example 1009] | 0.5 to 100 |
| COCC1(S(=O)(=O)NC(=O)c2ccc(Nc3nc(NC4(c5ccc(Cl)cc5)CC4)nc(OCC(F)(F)F)n3)cc2)CC1 [Example 1010] | 0.5 to 100 |
| O=C(NS(=O)(=O)C1(CN2CCCC2)CC1)c1ccc(Nc2nc(NC3(c4ccc(Cl)cc4)CC3)nc(OCC(F)(F)F)n2)cc1 [Example 1011] | 0.5 to 100 |
| CN(C)CC1(S(=O)(=O)NC(=O)c2ccc(Nc3nc(NC4(c5ccc(Cl)cc5)CC4)nc(OCC(F)(F)F)n3)cc2)CC1 [Example 1012] | 0.5 to 100 |
| O=C(NS(=O)(=O)C1(CN2CCC2)CC1)c1ccc(Nc2nc(NC3(c4ccc(Cl)cc4)CC3)nc(OCC(F)(F)F)n2)cc1 [Example 1013] | 0.5 to 100 |
| CCN(CC)CC1(S(=O)(=O)NC(=O)c2ccc(Nc3nc(NC4(c5ccc(Cl)cc5)CC4)nc(OCC(F)(F)F)n3)cc2)CC1 [Example 1014] | 0.5 to 100 |
| O=C(NS(=O)(=O)C1(CN2CCOCC2)CC1)c1ccc(Nc2nc(NC3(c4ccc(Cl)cc4)CC3)nc(OCC(F)(F)F)n2)cc1 [Example 1015] | 0.5 to 100 |
| CC1(C)CCCN1CC1(S(=O)(=O)NC(=O)c2ccc(Nc3nc(NC4(c5ccc(Cl)cc5)CC4)nc(OCC(F)(F)F)n3)cc2)CC1 [Example 1016] | 0.5 to 100 |
| NC(=O)C1C[C@@H]2C[C@@H]2N1CC1(S(=O)(=O)NC(=O)c2ccc(Nc3nc(NC4(c5ccc(Cl)cc5)CC4)nc(OCC(F)(F)F)n3)cc2)CC1 (stereo partly drawn) [Example 1017] | 0.5 to 100 |
| CC(=O)N1CCN(CC2(S(=O)(=O)NC(=O)c3ccc(Nc4nc(NC5(c6ccc(Cl)cc6)CC5)nc(OCC(F)(F)F)n4)cc3)CC2)CC1 [Example 1018] | 0.5 to 100 |
| O=C(NS(=O)(=O)C1(CN2CCN(c3ccncc3)CC2)CC1)c1ccc(Nc2nc(NC3(c4ccc(Cl)cc4)CC3)nc(OCC(F)(F)F)n2)cc1 [Example 1019] | 0.5 to 100 |
| CN1CCN(CC2(S(=O)(=O)NC(=O)c3ccc(Nc4nc(NC5(c6ccc(Cl)cc6)CC5)nc(OCC(F)(F)F)n4)cc3)CC2)CC1 [Example 1020] | 0.5 to 100 |

| SMILES | EC50 [nM] |
| --- | --- |
| CN(CC1(S(=O)(=O)NC(=O)c2ccc(Nc3nc(NC4(c5ccc(Cl)cc5)CC4)nc(OCC(F)(F)F)n3)cc2)CC1)c1ccccc1 [Example 1021] | 0.5 to 100 |
| CN(CC1(S(=O)(=O)NC(=O)c2ccc(Nc3nc(NC4(c5ccc(Cl)cc5)CC4)nc(OCC(F)(F)F)n3)cc2)CC1)C1CC1 [Example 1022] | 0.5 to 100 |
| CC1(C)CCN(CC2(S(=O)(=O)NC(=O)c3ccc(Nc4nc(NC5(c6ccc(Cl)cc6)CC5)nc(OCC(F)(F)F)n4)cc3)CC2)C1 [Example 1023] | 0.5 to 100 |
| O=C(NS(=O)(=O)C1(CN2CC3CC3C2)CC1)c1ccc(Nc2nc(NC3(c4ccc(Cl)cc4)CC3)nc(OCC(F)(F)F)n2)cc1 (stereo not drawn) [Example 1024] | 0.5 to 100 |
| O=C(NS(=O)(=O)C1(CO)CC1)c1ccc(Nc2nc(NC3(c4ccc(Cl)cc4)CC3)nc(OCC(F)(F)F)n2)cc1 [Example 1025, 4-(4-(1-(4-chlorophenyl)cyclopropylamino)-6-(2,2,2-trifluoroethoxy)-1,3,5-triazin-2-ylamino)-N-(1-(hydroxymethyl)cyclopropylsulfonyl)benzamide] | 0.5 to 100 |
| CNC(=O)OCC1(S(=O)(=O)NC(=O)c2ccc(Nc3nc(NC4(c5ccc(Cl)cc5)CC4)nc(OCC(F)(F)F)n3)cc2)CC1 [Example 1026] | 100 to 1000 |
| CC(C)NC(=O)OCC1(S(=O)(=O)NC(=O)c2ccc(Nc3nc(NC4(c5ccc(Cl)cc5)CC4)nc(OCC(F)(F)F)n3)cc2)CC1 [Example 1027] | 0.5 to 100 |
| O=C(Nc1cccnc1)OCC1(S(=O)(=O)NC(=O)c2ccc(Nc3nc(NC4(c5ccc(Cl)cc5)CC4)nc(OCC(F)(F)F)n3)cc2)CC1 [Example 1028] | 0.5 to 100 |
| O=C(NS(=O)(=O)CCN1CCCC1)c1ccc(Nc2nc(NC3(c4ccc(Cl)cc4)CC3)nc(OCC(F)(F)F)n2)cc1 [Example 1029, 4-(4-(1-(4-chlorophenyl)cyclopropylamino)-6-(2,2,2-trifluoroethoxy)-1,3,5-triazin-2-ylamino)-N-(2-(pyrrolidin-1-yl)ethylsulfonyl)benzamide] | 0.5 to 100 |
| O=C(NS(=O)(=O)CCN1CCOCC1)c1ccc(Nc2nc(NC3(c4ccc(Cl)cc4)CC3)nc(OCC(F)(F)F)n2)cc1 [Example 1030] | 0.5 to 100 |
| CN(C)CCS(=O)(=O)NC(=O)c1ccc(Nc2nc(NC3(c4ccc(Cl)cc4)CC3)nc(OCC(F)(F)F)n2)cc1 [Example 1031] | 0.5 to 100 |
| CCN(CC)CCS(=O)(=O)NC(=O)c1ccc(Nc2nc(NC3(c4ccc(Cl)cc4)CC3)nc(OCC(F)(F)F)n2)cc1 [Example 1032] | 0.5 to 100 |
| CC(C)(C)CNCCS(=O)(=O)NC(=O)c1ccc(Nc2nc(NC3(c4ccc(Cl)cc4)CC3)nc(OCC(F)(F)F)n2)cc1 [Example 1033] | 0.5 to 100 |
| O=C(NS(=O)(=O)CCNCc1ccccc1)c1ccc(Nc2nc(NC3(c4ccc(Cl)cc4)CC3)nc(OCC(F)(F)F)n2)cc1 [Example 1034] | 0.5 to 100 |
| CC(C)NCCS(=O)(=O)NC(=O)c1ccc(Nc2nc(NC3(c4ccc(Cl)cc4)CC3)nc(OCC(F)(F)F)n2)cc1 [Example 1035] | 0.5 to 100 |
| CC(=O)NCCS(=O)(=O)NC(=O)c1ccc(Nc2nc(NC3(c4ccc(Cl)cc4)CC3)nc(OCC(F)(F)F)n2)cc1 [Example 1036] | 0.5 to 100 |
| O=C(NCCS(=O)(=O)NC(=O)c1ccc(Nc2nc(NC3(c4ccc(Cl)cc4)CC3)nc(OCC(F)(F)F)n2)cc1)c1ccccc1 [Example 1037] | 0.5 to 100 |
| CC(C)C(=O)NCCS(=O)(=O)NC(=O)c1ccc(Nc2nc(NC3(c4ccc(Cl)cc4)CC3)nc(OCC(F)(F)F)n2)cc1 [Example 1038] | 0.5 to 100 |
| O=C(NS(=O)(=O)CCNC(=O)C1CC1)c1ccc(Nc2nc(NC3(c4ccc(Cl)cc4)CC3)nc(OCC(F)(F)F)n2)cc1 [Example 1039] | 0.5 to 100 |
| O=C(CC(F)(F)F)NCCS(=O)(=O)NC(=O)c1ccc(Nc2nc(NC3(c4ccc(Cl)cc4)CC3)nc(OCC(F)(F)F)n2)cc1 [Example 1040] | 0.5 to 100 |
